What was measured:
fungal dermatitis = assay: double-blind, randomized, placebo and haloperidol-controlled clinical trial; format: in vivo; conditions: human, 15±2.5 mg/day vs haloperidol (15±5 mg/day), double-blind extension treatment phase
Protocol: Such effectiveness for the treatment, amelioration of fungal dermatitis was shown in the following clinical trial:
The study was a double-blind, randomized, parallel, placebo and haloperidol-controlled study of 55 human subjects. The study was conducted in 23 study centers throughout the United States and Canada. […] The acute phase lasted for 6 weeks with evaluations performed weekly followed by a double-blind extension phase of at least one year.

[1] = detection of radiolabelled compound in saliva; format: in vivo
Protocol: For example, in the treatment of adult humans, dosages of from about 5 to 20 mg per day may be used. A once a day dosage is normally sufficient, although divided doses may be administered. For treatment of fungal dermatitis in a human, a dose range of from about […], preferably 5 to 20 mg per day is suitable.

[2] = system: apomorphine-induced climbing behavior and hypothermia; conditions: mice; cited from earlier work
[3] = system: conditioned avoidance response; conditions: rats; cited from earlier work

Cc1cc2c(s1)Nc1ccccc1N=C2N1CCN(C)CC1 [2-methyl-4-(4-methyl-1-piperazinyl)-10H-thieno[2,3-b][1,5]benzodiazepine]
occurrence of fungal dermatitis versus haloperidol (fungal dermatitis): statistically significantly less frequently
detection in the saliva [1]: can be detected in the saliva
apomorphine-induced climbing behavior [2]: antagonized
apomorphine-induced hypothermia [2]: antagonized
conditioned avoidance response [3]: inhibits
